The source of these data is publication PMC8760490, “Discovery of novel furanylbenzamide inhibitors that target oncogenic tyrosine phosphatase SHP2 in leukemia cells” (The Journal of Biological Chemistry, 2021).

The target of test [1] is T1, SHP2 catalytic domain (SHP2cat; residues 248–527) (Homo sapiens, UniProt Q06124).
T1 construct: the SHP2 catalytic domain (SHP2cat; residues 248–527); made in house
T1 sequence (Q06124 248-527): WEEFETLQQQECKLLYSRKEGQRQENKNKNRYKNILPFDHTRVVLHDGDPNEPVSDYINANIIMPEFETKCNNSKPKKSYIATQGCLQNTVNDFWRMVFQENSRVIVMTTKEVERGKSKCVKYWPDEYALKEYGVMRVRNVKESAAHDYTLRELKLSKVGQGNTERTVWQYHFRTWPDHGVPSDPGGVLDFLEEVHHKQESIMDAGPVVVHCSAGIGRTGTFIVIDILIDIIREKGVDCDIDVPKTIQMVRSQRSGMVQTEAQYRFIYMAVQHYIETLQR
Briefly: DiFMUP fluorescence phosphatase inhibition assay, SHP2cat. It counts as biochemical. The text has this: (§1) To test the synthesized compounds for their potential to inhibit SHP2 activity, a fluorescence intensity-based assay using 6,8-difluoro-4-methylumbelliferyl phosphate (DiFMUP) as the substrate was adapted for three recombinant SHP2 constructs: (1) the SHP2 catalytic domain (SHP2cat; residues 248–527), (2) the full-length SHP2-E76K oncogenic mutant, and (3) the full-length SHP2 WT (SHP2-WT). The recombinant SHP2 proteins were expressed and purified as described previously ([36]). A dually phosphorylated peptide derived from the insulin receptor substrate 1 (IRS-1) served as a surrogate binding protein and was used to activate SHP2-WT ([30], [36]). […] Michaelis–Menten experiments to determine the DiFMUP Michaelis–Menten constant (Km) for each SHP2 construct were performed as described previously ([36]) and yielded the following values: SHP2-WT, Km = 60 μM; SHP2-E76K, Km = 20 μM; and SHP2cat, Km = 20 μM. Relative maximum rates (Vmax) of the DiFMUP reactions expressed as relative fluorescence units per minute (RFU/min) were as follows: SHP2-WT, Vmax = 871 RFU/min; SHP2-E76K, Vmax = 2730 RFU/min; and SHP2cat, Vmax = 2912 RFU/min. IC50 values for each compound were determined from initial rates in 10-point dose–response assays using DiFMUP at a concentration corresponding to its Km value for the respective SHP2 construct. […] Replacements for the benzothiophenone were explored using analog #10.
(§2) Recombinant human full-length SHP2 (1–594) WT and E76K mutants, as well as the SHP2cat (248–527), were expressed and purified as described before ([36], [41]). Recombinant human PTP1B (1–300) and the codon-optimized STEP (280–566) catalytic domains were cloned into PET-15b and expressed as N-His-tagged fusion proteins. For expression, transformed BL21(DE3) cells were grown and induced similar as described for SHP2. Collected cells were resuspended in lysis buffer (25 mM Tris, pH 7.5, 300 mM NaCl, 50 mM imidazole, and 10% glycerol) with 100 mg/l RNaseA and were lysed with two passages using a microfluidizer. The lysate was clarified by centrifugation at 15,000g for 50 min and applied to nickel–nitrilotriacetic acid resin. The column resin was washed, and the PTP1B or STEP protein was eluted in lysis buffer at 300 mM imidazole. The PTP1B or STEP protein was further purified by S75 size-exclusion chromatography in 50 mM Tris, pH 7.5, 50 mM NaCl. The eluted peak fractions were supplemented with tris(2-carboxyethyl)phosphine to 10 mM, concentrated by ultrafiltration, and stored at −80 °C. The purified yield of PTP1B was 33 mg/l cell culture; the yield of STEP was 16 mg/l cell culture.
(§3) SHP2 inhibitors were tested at RT in a 384-well plate format standard phosphatase fluorescence intensity assay using DiFMUP (Invitrogen/Thermo Fisher Scientific) as a substrate and a total reaction volume of 25 μl. SHP2 inhibitors or vehicle (DMSO) were spotted in triplicate into a black Greiner FLUOTRAC 200 384-well microplate (catalog no.: 781076; Greiner) for a 10-point dose–response assay using an Echo 555 Liquid Handler (Labcyte, Inc). PTP working solutions were prepared at a 0.625 nM concentration (for a final concentration of 0.5 nM) in buffer containing 50 mM Bis–Tris, pH 6.0, 50 mM NaCl, 5 mM DTT, and 0.01% Tween-20. Prior to the assay, a dually phosphorylated IRS-1 peptide (625 nM [500 nM final] ([30])) was added to full-length WT SHP2 working solutions and incubated for 20 min. DiFMUP working solutions at 5× final concentration were prepared in 50 mM Bis–Tris, pH 6.0, 50 mM NaCl, and 0.01% Tween-20. About 20 μl of PTP working solution was dispensed into the microplate and incubated with inhibitor for 20 min at RT. […] The reaction was initiated by addition of 5 μl DiFMUP working solutions. Fluorescence intensity was measured in kinetic mode (every minute for 7 or 10 min) using a Tecan Spark Multimode Microplate Reader (Tecan) with an excitation wavelength of 360 nm and an emission wavelength of 460 nm. […]

The target in test [2] is T2, full-length SHP2 WT (SHP2-WT) (Homo sapiens, UniProt Q06124).
T2 construct: Recombinant human full-length SHP2 (1–594) WT and E76K mutants; made in house
Put plainly: DiFMUP fluorescence phosphatase inhibition assay, SHP2-WT activated with IRS-1 peptide. It counts as biochemical. The following applies: DiFMUP at Km (60 μM), pH 6.0.
From the text: as §1, §2, §3

The mark [3] stands for this setting: DiFMUP at Km (20 μM), pH 6.0, read-out: SHP2cat, IC50.
Setting [4] is: catalytic domain, DiFMUP at Km, read-out: SHP2 IC50 (Table 2).

Where two headings read alike, the source gives them in different places.

Turning to `Nc1ccc(NC(=O)c2cc(-c3ccc(/C=C4\Sc5ccccc5C4=O)o3)ccc2O)cc1` [SBI-2130, (Z)-N-(4-Aminophenyl)-2-hydroxy-5-(5-((3-oxobenzo[b]thiophen-2(3H)-ylidene)methyl)furan-2-yl)benzamide], the IC50 in test [1] (setting [3]) was 220 nM; in test [1] (setting [4]) it was 220 nM; in test [2] it was 5000 nM.

Turning to `O=C1CCCC1=Cc1ccc(-c2ccc(O)c(C(=O)Nc3ccccc3)c2)o1` [SBI-3192, 2-Hydroxy-5-(5-((2-oxocyclopentylidene)methyl)furan-2-yl)-N-phenylbenzamide], the results for the IC50 in test [1] (setting [3]), in test [1] (setting [4]) and in test [2] were 1100 nM, 1100 nM and 4100 nM, respectively.

For the molecule `N#Cc1cc(-c2ccc(/C=C3\Sc4ccccc4C3=O)o2)ccc1O` [SBI-3404, (Z)-2-Hydroxy-5-(5-((3-oxobenzo[b]thiophen-2(3H)-ylidene)methyl)furan-2-yl)benzonitrile], the IC50 is 1400 nM in test [1] (setting [3]), 1400 nM in test [1] (setting [4]) and 11000 nM in test [2].

In the case of `O=C1/C(=C/c2ccc(-c3ccc(O)c(-c4nn[nH]n4)c3)o2)Sc2ccccc21` [SBI-3405, (Z)-2-((5-(4-Hydroxy-3-(2H-tetrazol-5-yl)phenyl)furan-2-yl)methylene)benzo[b]thiophen-3(2H)-one], the results for the IC50 in test [1] (setting [3]), in test [1] (setting [4]) and in test [2] were 2000 nM, 2000 nM and 4200 nM, respectively.

Turning to `O=C(Nc1ccccc1)c1cc(-c2ccc(/C=C3\Sc4ccccc4C3=O)o2)ccc1O` [SBI-4668, (Z)-2-Hydroxy-5-(5-((3-oxobenzo[b]thiophen-2(3H)-ylidene)methyl)furan-2-yl)-N-phenylbenzamide], the IC50 was 730 nM in test [1] (setting [3]), 730 nM in test [1] (setting [4]) and 15000 nM in test [2].
